Test results as given in patent publication US20230381157A1, “RIFABUTIN FOR THE TREATMENT OF ACINETOBACTER BAUMANNII” (University of Southern California, priority 2018, published 2023).
≈ marks a conversion by molar mass, not a printed value. Entries after “also recorded” stand apart in the source; their conditions may differ. Like-named read-outs stand apart in the source and are kept apart here.

Tests used:
E. coli JJ1886 = type: cell-based, Escherichia coli; settings: TSA
[1] = tested on: GFP expressing reporter strain of A. baumannii HUMC1; type: cell-based, Acinetobacter baumannii; settings: addition of amino acids to RPMI vs RPMI alone; 6 hours
A. baumannii ATCC 17978 = test: IC50 dose response, inhibition of bacterial growth (BacTiter-Glo viability); type: cell-based, Acinetobacter baumannii; settings: Acinetobacter baumannii, 11-point dose response
A. baumannii HUMC1 [2] = test: as above; type: cell-based, Acinetobacter baumannii; settings: Acinetobacter baumannii, 11-point dose response
A. baumannii HUMC1 [3] = test: Time kill assay in RPMI with or without amino acids; type: cell-based, Acinetobacter baumannii; settings: RPMI alone vs RPMI with amino acids; 8 and 24 hrs
[4] = Murine neuropenic lung infection model; type: in vivo, mouse
K. pneumonia = test: MIC, broth microdilution; type: cell-based; settings: Klebsiella pneumoniae, K. pneumonia KPC-KP1
A. baumannii HUMC1 [5] = type: in vivo, mouse
A. baumannii HUMC1 [6] = type: in vivo, mouse; settings: for lung CFUs: lungs at 24 hrs post infection
A. baumannii [7] = type: cell-based, Acinetobacter baumannii
S. aureus LAC = type: cell-based, Staphylococcus aureus; settings: TSA
A. baumannii [8] = test: MIC, broth microdilution, A. baumannii clinical isolates / strain panel; type: cell-based, Acinetobacter baumannii
[9] = 5 mg/kg/daily for 3 days, oral gavage
[10] = 5 mg/kg/daily for 3 days, oral gavage, listed as RBT

## CO[C@H]1/C=C/O[C@@]2(C)Oc3c(C)c(O)c4c(c3C2=O)C2=NC3(CCN(CC(C)C)CC3)NC2=C(NC(=O)/C(C)=C\C=C\[C@H](C)[C@H](O)[C@@H](C)[C@@H](O)[C@@H](C)[C@H](OC(C)=O)[C@@H]1C)C4=O [rifabutin]
E. coli JJ1886
  Mutation Frequency: 3.89E−08
[1]
  inhibition of GFP fluorescence: less inhibition of GFP fluorescence
A. baumannii ATCC 17978; ATCC17978, 24 h, ATCC 17978, RPMI + 50% Serum
  IC50: < 847 pM
A. baumannii ATCC 17978; ATCC17978, ATCC 17978, RPMI + 50% Serum
  IC50: < 847 pM
A. baumannii ATCC 17978; ATCC17978, ATCC 17978, RPMI
  IC50: 24000 pM
A. baumannii HUMC1 [2]; HUMC1, 24 h, HUMC1, RPMI + 50% Serum
  IC50: < 847 pM
A. baumannii HUMC1 [2]; HUMC1, HUMC1, RPMI + 50% Serum
  IC50: < 847 pM
A. baumannii HUMC1 [2]; HUMC1, HUMC1, RPMI
  IC50: 1000 pM
A. baumannii HUMC1 [3]
  reduction in CFUs (time kill): greater reduction in CFUs
[4]
  efficacy vs RIF: more effective as compared to RIF
K. pneumonia; MHII
  MIC: 25 µg/mL (≈ 29.5 µM)
K. pneumonia; RPMI
  MIC: 12.5 µg/mL (≈ 14.8 µM)
A. baumannii HUMC1 [5]; IV infection, 10 mg/kg/day for 3 days, oral gavage, 10 mg/kg/day
  survival: improved survival
A. baumannii HUMC1 [5]; IV infection, 10 mg/kg/day for 3 days, oral gavage, at 1 hr
  CFUs in blood: significantly lower CFUs in the blood
A. baumannii HUMC1 [5]; IV infection, 10 mg/kg/day for 3 days, oral gavage, at 24 hrs, 10 mg/kg/day
  CFUs in blood: significantly lower CFUs in the lung
A. baumannii HUMC1 [5]; IV infection, 10 mg/kg/day for 3 days, oral gavage, at 24 hrs, listed as RBT, 10 mg/kg/day
  CFUs in blood: significantly lower CFUs in the blood; also recorded: significantly reduced CFUs
A. baumannii HUMC1 [5]; IV infection, 10 mg/kg/day for 3 days, oral gavage, listed as RBT, 10 mg/kg/day
  survival: significant improvement in survival; also recorded: significantly improved survival
A. baumannii HUMC1 [5]; IV infection, RBT 0.1 or 0.3, RIF 10 or 30 mg/kg/daily for 3 days, printed 100X / 100×
  fully protective at fold lower dose than RIF: 100
A. baumannii HUMC1 [5]; bacteremia model, 10 mg/kg for 3 days, 2 days post infection, PBS/control 0%
  survival: about 100%
A. baumannii HUMC1 [5]; murine bacteremia, 0.1 mg/kg
  protection: fully protective
A. baumannii HUMC1 [6]; 5 mg/kg for 3 days, […]
  survival: about 80%
A. baumannii HUMC1 [6]; [9]
  survival: significantly improved
  lung CFUs: significantly lower CFUs in the lung
A. baumannii HUMC1 [6]; [10]
  survival: significantly improved survival
  lung CFUs: significantly reduced lung CFUs; also recorded: significantly lower CFUs in the lung
A. baumannii HUMC1 [6]; 10 mg/kg/day for 3 days, oral gavage, listed as RBT
  survival: modest improvement in survival; also recorded: modest survival benefit
A. baumannii HUMC1 [6]; 10 mg/kg/day for 3 days, at 24 hours
  reduction in the median CFUs in the blood as compared to RIF-treated mice: 7 log
A. baumannii HUMC1 [6]; C3H mice, 10 mg/kg/daily for 3 days, oral gavage, blood at 24 hrs
  CFUs in blood (vs RIF): significant reduction in CFUs
A. baumannii HUMC1 [6]; murine pneumonia, 5 mg/kg
  improvement of survival rates: over 70%
A. baumannii HUMC1 [6]; murine pneumonia, 5 mg/kg, day 7 post-infection
  bacterial burden: about 2 Log10(CFU/mg lung)
A. baumannii [7]; A. baumannii ABNIH1, MHII
  Mutation Frequency: 8.85E−09
A. baumannii [7]; A. baumannii ABNIH1, TSA
  Mutation Frequency: 5.95E−09
A. baumannii [7]; A. baumannii ATCC17978, MHII
  Mutation Frequency: 5.72E−09
A. baumannii [7]; A. baumannii ATCC17978, TSA
  Mutation Frequency: 8.49E−10
A. baumannii [7]; A. baumannii HUMC1, MHII
  Mutation Frequency: 2.20E−09
A. baumannii [7]; A. baumannii HUMC1, TSA
  Mutation Frequency: 1.28E−08
A. baumannii [7]; A. baumannii LAC-4, MHII
  Mutation Frequency: 1.29E−08
A. baumannii [7]; A. baumannii LAC-4, TSA
  Mutation Frequency: 7.41E−09
S. aureus LAC
  Mutation Frequency: 1.10E−07
A. baumannii [8]; A. baumannii, RPMI with serum
  fold more potent than rifampin (RIF): 133 fold
A. baumannii [8]; AB044, MHII
  Rifabutin MIC: 3.12 µg/mL
A. baumannii [8]; AB044, RPMI
  Rifabutin MIC: 0.78 µg/mL
A. baumannii [8]; AB046, MHII
  Rifabutin MIC: 0.19 µg/mL
A. baumannii [8]; AB046, MHII (first line)
  Rifabutin MIC: 6.25 µg/mL
A. baumannii [8]; AB307-0294, MHII
  Rifabutin MIC: 6.25 µg/mL
A. baumannii [8]; AB307-0294, RPMI
  Rifabutin MIC: < 0.05 µg/mL
A. baumannii [8]; AB15827, MHII
  Rifabutin MIC: 3.13 µg/mL
A. baumannii [8]; AB15827, RPMI
  Rifabutin MIC: 0.2 µg/mL
